Experimental data from the OligoGym collection.
HELM strings list units from the 5' end as sugar, base in round brackets, then linkage (d deoxyribose, r ribose, m 2'-O-methyl, p phosphodiester). Strings are as the collection lists them; they lack the last nucleoside at the 3' end of the tested compound. [moe] = 2'-O-(2-methoxyethyl) (MOE); [sp] = phosphorothioate linkage; [m5C] = 5-methylcytosine

Target: SOD1
Experiment: mouse, dose not given
Settings: ASO

Row | Substance | 3 h FOB score
1 | RNA1{[moe]([m5C])[sp].[moe]([m5C])[sp].[moe](G)[sp].[moe](T)[sp].[moe]([m5C])[sp].d(G)[sp].d([m5C])[sp].d([m5C])[sp].d([m5C])[sp].d(T)[sp].d(T)[sp].d([m5C])[sp].d(A)[sp].d(G)[sp].d([m5C])[sp].[moe](A)[sp].[moe]([m5C])[sp].[moe](G)[sp].[moe]([m5C])}$$$$ (last 3' nucleoside missing) | 6.5 score 0-7
2 | RNA1{[moe]([m5C])[sp].[moe](A)p.[moe](G)[sp].[moe](G)p.[moe](A)[sp].d(T)[sp].d(A)[sp].d([m5C])[sp].d(A)[sp].d(T)[sp].d(T)[sp].d(T)[sp].d([m5C])[sp].d(T)[sp].d(A)[sp].[moe]([m5C])p.[moe](A)[sp].[moe](G)p.[moe]([m5C])}$$$$ (last 3' nucleoside missing) | 1.25 score 0-7
